Where two headings read alike, the source gives them in different places.
What was measured:
[1] = test system: human leukemia cell line MV4-11; settings: for in vivo tumor growth inhibition effect: oral intragastric q.d., MV4-11 tumors 400-500 mm^3 at start; for inhibition effect compared with positive control sorafenib: sorafenib 3 mg/kg q.d., MV4-11 model
Method: The cell line used was human leukemia cell line MV4-11. The drug (Sorafenib) undergoing anti-leukemia clinical trial was used as the positive control.
NOD-SCID mice at age of 6 to 8 weeks were used, and MV4-11 cells were inoculated at the subcutaneous posterior ribs of the mice at a concentration of 1×10^7/0.1 mL/mouse; after the tumors grew to 400-500 mm^3 (for about 20 days), mice (n=6) were grouped and subject to oral intragastric administration.
(§2) Observation targets: Mouse weight and long and short diameters of tumor were measured every 3 days, and tumor volume (length×width^2×0.52) was calculated to observe for diarrhea, convulsion, rash, significant weight loss and other reactions.

[2] = test system: human malignant melanoma cell line WM2664
Method: The purpose of the experiment was to test the in vivo anti-tumor effect of the compound of the invention. […] The cell line used was human malignant melanoma cell line WM2664. The drug (sorafenib) undergoing anti-melanoma clinical trial was used as the positive control.
BALB/C nude mice at age of 6 to 8 weeks were used, and WM2664 cells were inoculated at the subcutaneous posterior ribs of the mice at a concentration of 5×106/0.1 mL/mouse; after the tumors grew to 200-300 mm^3 (for about 15 days), mice (n=6) were grouped and subject to oral intragastric administration.
as §2

[3] = test system: inter segmental blood vessels of transgenic zebrafish (FLK1-GFP); test: Angiogenesis inhibition activity test in transgenic zebrafish (FLK1-GFP); assay type: in vivo; settings: concentration of 1 ug/mL, compared with the control group
Method: The new blood vessel inhibition activity of the test compounds was expressed by the inhibition degree of the test compounds for the inter segmental blood vessels of zebrafish at concentrations of 10 ug/mL, 3 ug/mL and 1 ug/mL.
Acquisition of zebrafish embryos: The zebrafish used by this laboratory was fluorescent transgenic zebrafish (FLK1: GFP). Refer to Westerfield method for breeding and cultivation of zebrafish. The day before spawns were obtained, male and female zebrafish were paired at the ratio of 1:1. On the second day, the male and female zebrafish naturally mated and spawned at a temperature of about 28° C. under sufficient illumination. Enough zebrafish embryos were collected, washed, placed into embryo culture media, and put into a 28° C. incubator for culture. The survival of embryos was identified by morphological and phylogenetic standards, and dead embryos were white and taken out timely to prevent deterioration of water quality. […]
Result observation: Thirty one hours after the zebrafish embryos were fertilized, spawns were taken out and hatched zebrafish was peeled off; and then the hatched zebrafish was put onto slide, 1‰ tricaine solution was added to narcotize the fish body, and 1.5% methylcellulose was used to fix the fish body; and the inter segmental vessels (ISV) were observed, counted and photographed under a fluorescence microscope. […]

[4] = test system: human colorectal carcinoma cell line HT29; test: In vivo anti-tumor experiment, nude mouse-subcutaneous human colorectal carcinoma HT29 model; parameters: species or system BALB/C nude mice
Text: (§1) The cell lines used were human colorectal carcinoma cell line HT29 and human glioma cell line U251.

[5] = test system: human glioma cell line U251; test: In vivo anti-tumor experiment, nude mouse-subcutaneous human glioma U251 model; parameters: species or system BALB/C nude mice
Text: as §1

[6] = daily dose of 30 mg/kg or above, oral
[7] = nude mice, 15-60 mg/kg q.d. oral

With `O=C(Nc1ccc(Oc2ncnc3[nH]ncc23)cc1)Nc1ccc(Cl)c(C(F)(F)F)c1` [4a-2] the “in vivo tumor growth inhibition effect” value ([1]; daily dose of 3 mg/kg or above) was “obviously inhibit tumor growth or extinct tumor completely”, the “inhibition effect compared with positive control sorafenib” value [1] was “superior to the positive control (sorafenib)” and the “effect compared with sorafenib” value ([2]; 4a-2 25 mg/kg/d vs sorafenib at daily dose of 50 mg/kg) was “more effective than sorafenib”. The “in vivo tumor growth inhibition effect” value ([2]; dose of 25 mg/kg/d, oral, WM2664 (BRAF V600D) model) was “obviously inhibit tumor growth”.

`O=C(Nc1ccc(Oc2ncnc3[nH]ncc23)cc1)Nc1cccc(C(F)(F)F)c1` [4a-6] was tested, and the “angiogenesis inhibition for FLK1 transgenic zebrafish” value [3] was “inhibit angiogenesis of zebrafish very well”, the “in vivo tumor growth inhibition effect” value [4, 6] was “obviously inhibit tumor growth” and the “weight loss, rash, diarrhea and other adverse reactions during administration” value [4, 7] was “not found”. For the same compound, the “in vivo tumor growth inhibition effect” value [5, 6] was “obviously inhibit tumor growth” and the “weight loss, rash, diarrhea and other adverse reactions during administration” value [5, 7] was “not found”.

`CC(C)(C)c1cc(NC(=O)Nc2ccc(Oc3ncnc4[nH]ncc34)c(F)c2)no1` [4a-31] was tested, and the “in vivo tumor growth inhibition effect” value ([1]; daily dose of 1 mg/kg) was “obviously inhibit tumor growth”, the “in vivo tumor growth inhibition effect” value ([1]; daily dose of 3 mg/kg or above) was “extinct tumor completely” and the “inhibition effect compared with positive control sorafenib” value [1] was “superior to the positive control (sorafenib)”. For the same compound, the “angiogenesis inhibition for FLK1 transgenic zebrafish” value [3] was “inhibit angiogenesis of zebrafish very well”.
